What was measured:
[1] = test system: HDFs; test: proliferation of HDFs; format: cell-based, human
[2] = test system: Primary human dermal fibroblasts (HDFs); test: ROS production (DHE cytosolic, MitoSOX Red mitochondrial) in stressed primary human dermal fibroblasts; format: cell-based; conditions: for decrease of cytosolic ROS production (DHE) / reduction of mitochondrial ROS production (MitoSOX Red): 5 mM BHB 72 hours, then 100 μM tert-butyl-hydrogen peroxide 3 hrs
Method: Primary human dermal fibroblasts (HDFs, passaged 2-8) from young and aged donors (24 to 88 years) were incubated in the absence or presence of BHB for 72 hours prior to stress with 100 μM tert-buytl-hydrogen peroxide for 3 hours. ROS production was measured fluorescently with dihydroethidium (DHE, cytosolic) and MitoSOX Red (mitochondrial) in triplicate, N=6. In the cytosol, aged HDFs produced 28% (p=<0.001)) more ROS basally compared to their young counterparts. When incubated in BHB for 72 hours, ROS production in the young HDFs decreased by 40% (p=<0.0001) and by 41% (p=<0.0001) in the aged. In the mitochondria, aged HDFs produced 27% (p=<0.0001) more ROS at baseline than the young HDFs, consistent with observations in cytosol. […] As such, ketone supplementation is useful against redox stress and augments wound healing, shifting redox homeostasis in HDFs, especially in the elderly. Primary human dermal fibroblasts (HDFs, passaged 2-8) from young and aged donors (24 to 88 years) were incubated in the absence or presence of 5 mM beta-hydroxybutyrate (BHB) for 72 hours. To simulate a wound environment, the cells were then stressed with 100 μM tert-butyl-hydrogen peroxide for 3 hrs. ROS production was measured fluorescently with dihydroethidium (DHE, cytosolic) and Mitosox Red (mitochondrial) in triplicate, N=6. In the cytosol, seen in FIG. 2(A), aged HDFs produced 25% (p=0.003) more ROS basally compared to their young counterparts. This is consistent with the knowledge that aged cells have less antioxidants to mitigate the ROS production in a stressed environment. When incubated in 5 mM BHB for 72 hours, young HDFs ROS production decreased by 40% (p=<0.0001) and aged ROS production decreased by 41% (p=<0.0001). […] When incubated in BHB, ROS production was reduced in the young by 29% (p<0.0001) and in the aged by 51% (p<0.0001) compared to the controls. […] Significance calculated using one-way ANOVA and t-tests on Prism 6 software.

[3] = test system: Young and aged HDFs; test: scratch migration assay; format: cell-based, human; conditions: for migrated cells (Dapi staining) versus untreated control: 5 mM BHB 72 hours, 18 hours after scratch
Method: Young and aged HDFs were grown to confluence in 0.2% FBS 5 mM glucose DMEM media, cells were treated with or without the presence of 5 mM BHB for 72 hours, cells were scratched with 200 uL yellow pipette tip. After 18 hours, migrated cells were counted using Dapi staining.

CC(O)CC(=O)O (stereo not drawn) [BHB, beta-hydroxybutyrate]
proliferation [1]: did not significantly change proliferation | decrease of cytosolic ROS production (DHE) ([2]; aged HDFs): 41% | reduction of mitochondrial ROS production (MitoSOX Red) ([2]; aged HDFs): 51% | decrease of cytosolic ROS production (DHE) ([2]; young HDFs): 40% | reduction of mitochondrial ROS production (MitoSOX Red) ([2]; young HDFs): 29% | cytosolic and mitochondrial ROS production ([2]; young and aged primary human dermal fibroblasts, in words): reduces cytosolic and mitochondrial ROS production | migrated cells (Dapi staining) versus untreated control ([3]; aged HDFs): migrated significantly more | migration ([3]; both young and aged HDFs, in words): did increase migration | migrated cells (Dapi staining) versus untreated control ([3]; young HDFs): migrated significantly more

From US11806328B2, “Metabolic therapy for wound healing” (University of South Florida, priority 2013, dated 2023)
